Data on 8 compounds can be found in PubChem BioAssay (NCI).

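Assay format: 96-well plates, 48-hour exposure. GI50 = concentration required for 50% inhibition of growth. TGI: concentration producing complete growth inhibition.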

Assay in all cases: growth of human tumour cells (NCI), 48 h
Test [1] concerns UO-31 renal.
Test [2] relates to KM12 colon.
In test [3] the test system is SF-268 CNS.
For test [4], the system named is SK-MEL-2 melanoma.
The subject of test [5] is HT29 colon.
Test [6] has as its system HCT-15 colon.
In test [7] the test system is SF-295 CNS.
Test [8] relates to U251 CNS.
Test [9] concerns HL-60(TB) leukemia.
Test [10] deals with UACC-257 melanoma.

As to `CCCCCC(=O)N1c2ccccc2NC2=C(C(=O)CC(c3ccc(OC)c(OC)c3)C2)C1c1ccc(C(F)(F)F)cc1` (stereo not given), the GI50 was 42.5 µM in test [1]; greater than 100 µM in [2]; greater than 100 µM in [3]; greater than 100 µM in [4]; greater than 100 µM in test [5]; greater than 100 µM in test [6]. Besides, the GI50 in [7], in test [8], in test [9] and in [10] was greater than 100 µM in each case. Moreover, the TGI in test [1], in test [2], in test [3], in [4], in [5] and in [6] was greater than 100 µM throughout. In addition, the TGI in [7], in [8], in test [9] and in test [10] was greater than 100 µM throughout.

As to `CCNC(=O)C(O)C1(O)CCC2[C@@H]3CCC4=CC(=O)C=C[C@]4(C)C3[C@@H](O)C[C@@]21C` (stereo not given in full), the TGI is greater than 100 µM in [1]; greater than 100 µM in test [2]; greater than 79.9 µM in test [3]; greater than 100 µM in test [4]; greater than 100 µM in test [5]; greater than 100 µM in [6]. In addition, the TGI in [7] was greater than 100 µM; in [8] it was greater than 100 µM; in test [9], greater than 79.4 µM; in [10], greater than 100 µM.

`N#Cc1c(NC(=O)c2cccs2)[n+]([O-])c2ccccc2[n+]1[O-]`: the GI50 was greater than 100 µM in test [1]; greater than 100 µM in test [2]; greater than 100 µM in test [3]; greater than 100 µM in test [4]; greater than 100 µM in [5]; 64.1 µM in [6]. The GI50 in test [7], in [8], in test [9] and in [10] was greater than 100 µM each time. Further, the TGI in test [1], in [2], in [3], in [4], in test [5] and in test [6] was greater than 100 µM throughout. Further, the TGI in test [7], in test [8], in test [9] and in test [10] was greater than 100 µM each time.

For the compound `[N-]=[N+]=Nc1ncc(-c2ccc(C(F)(F)F)cc2)c(NC2CCCCCC2)n1`, the GI50 in test [1], in test [2], in test [3], in [4], in test [5] and in [6] was greater than 10 µM throughout. For the same compound, the GI50 in [7], in test [8], in [9] and in [10] was greater than 10 µM each time. Besides, the TGI in test [1], in [2], in [3], in test [4], in [5] and in [6] was greater than 10 µM in each case. Moreover, the TGI in [7], in test [8], in test [9] and in test [10] was greater than 10 µM in each case.

On to `COc1ccc(C2CC(=O)Nc3c2c(C)nn3-c2nc3ccccc3[nH]2)cc1` (stereo not given), for which the GI50 in test [1] is 3.19 µM; in [2], 2.72 µM; in test [3], 3.86 µM; in [4] it was 3.45 µM; in test [5], 3.47 µM; in [6] it was 3.49 µM. For the same compound, the GI50 in test [7] is 1.7 µM; in test [8] it was 2.56 µM; in test [9], 3.13 µM; in test [10], 2.65 µM. Moreover, the TGI is 15.8 µM in test [1]; 7.09 µM in [2]; 97.7 µM in [3]; 9.43 µM in test [4]; greater than 30.4 µM in [5]; greater than 100 µM in test [6]. Besides, the TGI in test [7] was 4.19 µM; in [8], 7.04 µM; in [9] it was 9.83 µM; in test [10], 8.21 µM.

Turning to `C#Cc1cccc(NC(=O)Nc2ccc(NC(=O)CCl)cc2)c1`, the GI50 in test [1] was 12.2 µM; in [2], 18.9 µM; in test [3], 12.7 µM; in test [4], greater than 82.5 µM; in test [5] it was 14.8 µM; in test [6] it was 15.4 µM. The GI50 was greater than 82.5 µM in test [7], 15.1 µM in test [8], 14.9 µM in [9] and greater than 82.5 µM in test [10]. Also, the TGI was 23.3 µM in test [1]; 63.8 µM in test [2]; 28.5 µM in test [3]; greater than 82.5 µM in test [4]; 36.3 µM in test [5]; 36.3 µM in test [6]. The TGI is greater than 82.5 µM in test [7], 35.2 µM in [8], 33.4 µM in test [9] and greater than 82.5 µM in test [10].

As to `C/C(=N\NC(N)=S)c1ccc2c(c1)OCO2`, the TGI in test [1], in [2], in test [3], in [4], in [5] and in test [6] was greater than 100 µM each time. The TGI in test [7], in test [8], in test [9] and in [10] was greater than 100 µM throughout.

For the compound `COc1cc2c(cc1OCCCCCOc1cc(-c3ccc(F)cc3)nc(C)n1)N=C[C@@H]1CCCN1C2=O`, the GI50 in test [1] is greater than 28.3 µM; in test [2] it was greater than 48.3 µM; in test [3] it was greater than 32.5 µM; in [4], greater than 48.3 µM; in test [5], greater than 45.1 µM; in test [6], greater than 41.9 µM. Also, the GI50 is greater than 50.9 µM in test [7], greater than 34.8 µM in test [8], greater than 100 µM in test [9] and greater than 100 µM in test [10]. Also, the TGI in [1] is greater than 59 µM; in [2] it was greater than 73.6 µM; in test [3], greater than 65.2 µM; in [4] it was greater than 68.7 µM; in test [5], greater than 100 µM; in [6], greater than 77.9 µM. In addition, the TGI in [7] is greater than 76.1 µM; in [8], greater than 86.7 µM; in [9] it was greater than 100 µM; in test [10], greater than 100 µM.
